From patent US20210069230A1, “SYNERGISTIC DRUG COMBINATIONS PREDICTED FROM GENOMIC FEATURES AND SINGLE-AGENT RESPONSE PROFILES” (THE BROAD INSTITUTE, INC., priority 2018, published 2021)

What was measured:
G402 cells = test: Overexpression of MGLL WT or enzyme-dead MGLL S132A, GSK-J4 sensitivity; assay type: cell-based
Method: Cell lines were taken from viably frozen stocks of the same original provenance as for CTRP and DepMap data, with identity confirmed by SNP-based DNA fingerprinting as described previously (12, 13, 39). Cell lines were propagated using the same media and culture conditions as for CTRPv2.0 experiments. For drug-treatment assays, 1000 cells per well were plated into 30 or […], of media in 384-well plates. For live-cell imaging, cells were plated into clear-bottom plates (Corning) and imaged on an IncuCyte S3 throughout the course of the experiment. For CellTiter-Glo experiments, the initial viability of a subset of plated cells was established at the same time as compound addition using CellTiter-Glo as described previously (24). Remaining cells were exposed to compounds and/or vehicle (constant DMSO volume) using a Tecan D300e Digital Dispenser, and CellTiter-Glo was added 72 hours later. DMSO- and D0-normalized concentration-response curves were generated using four-parameter nonlinear regression using the drc package in R (40). […] For calculation of drug combination effects, curves were fit and deviation from the null model (Loewe additivity) assessed using the BIGL package in R (reference: PMID 29263342) (41). […] Overall significance was assessed using the bootstrapped meanR test (n=1000 iterations), and per-concentration significance using maxR, as described by the package authors. […]

MGLL = MGLL (Homo sapiens, UniProt Q99685); test: Recombinant protein/mass spec assay of MGLL-mediated modification; assay type: biochemical
Chain of MGLL (Q99685 whole entry): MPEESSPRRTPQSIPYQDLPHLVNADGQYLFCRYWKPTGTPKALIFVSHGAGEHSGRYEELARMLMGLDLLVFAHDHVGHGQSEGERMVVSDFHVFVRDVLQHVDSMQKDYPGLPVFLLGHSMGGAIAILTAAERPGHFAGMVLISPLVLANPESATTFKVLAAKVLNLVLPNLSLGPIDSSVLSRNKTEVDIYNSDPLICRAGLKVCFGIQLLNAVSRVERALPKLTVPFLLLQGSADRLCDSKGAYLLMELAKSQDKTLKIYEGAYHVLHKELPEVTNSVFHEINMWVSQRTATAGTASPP
Description: The GSK-J4-modifying impact of MGLL is examined further via a recombinant protein/mass spec assay.

KMRC3 cells = test: IncuCyte live-cell microscopy of cellular proliferation; assay type: cell-based
Method: (§1) Cell lines were taken from viably frozen stocks of the same original provenance as for CTRP and DepMap data, with identity confirmed by SNP-based DNA fingerprinting as described previously (12, 13, 39). Cell lines were propagated using the same media and culture conditions as for CTRPv2.0 experiments. […] For live-cell imaging, cells were plated into clear-bottom plates (Corning) and imaged on an IncuCyte S3 throughout the course of the experiment. For CellTiter-Glo experiments, the initial viability of a subset of plated cells was established at the same time as compound addition using CellTiter-Glo as described previously (24). […] DMSO- and D0-normalized concentration-response curves were generated using four-parameter nonlinear regression using the drc package in R (40). Biphasic curves were also fit and prioritized relative to standard four-parameter curves where appropriate using the BIC (Bayesian information criteria) metric. […] General-purpose optimization (Nelder-Mean algorithm) was used for single-agent fits, and the “model” option was used to predict variance. Overall significance was assessed using the bootstrapped meanR test (n=1000 iterations), and per-concentration significance using maxR, as described by the package authors.

[1] = tested on: G402 and CJM cells overexpressing MGLL; test: Lentiviral ORF overexpression, compound sensitivity (CellTiter-Glo, GR); assay type: cell-based; conditions: 72 hours
Method: as §1
Infection and selection were carried out according to GPP Viral Infection protocols, followed by cell seeding in 384-well plates for compound treatment or harvesting for Western blotting as described above.
Parental cell lines were virally transduced with cDNAs that constitutively overexpressed BCL2L1, AIFM2, or MGLL (in G402 and CJM cells); ABCB1 or MGMT (in WM2664 cells); SLC7A11 (in BT12 and G402 cells); MCL1 (in HCC1500 cells); or IRS2 (in T47D cells) and subsequently drug sensitivity was measured. To account for potential differences in growth rates and to distinguish between cytostatic and cytotoxic drug responses, the normalized growth rate inhibition (GR) metric was used to assess cell viability (FIG. 3A) (18).

[2] = tested on: ATF4/metallothionein/ER stress; conditions: cited from earlier work
HEC1A and SUIT2 cells = test: CRISPR-Cas9 knockout of MGLL, GSK-J4 sensitivity; assay type: cell-based; conditions: 4 different sgRNAs
Method: Cas9 stably-infected HEC1A, MEWO, SUIT2, and WM2664 cells and sgRNAs (pXPR_BRD003 vector) targeting AIFM2, IRS2, MGLL, or control guides (non-cutting) were acquired from the GPP (FIG. 23). Cell line identities were confirmed to match parental cells using SNP fingerprinting. Virus was generated and infection carried out as described above. After puromycin selection (3 μg/mL for MEWO, 1.5 μg/mL for WM2664, 2 μg/mL for SUIT2 and HEC1A), cells were seeded in 384-well plates for compound treatment or harvested for Western blotting as described above.
Further, MGLL knockout in HEC1A cells was rescued by overexpression of MGLL when using an sgRNA that targeted MGLL across an intron-exon boundary and that therefore could not cut the MGLL ORF.

[3] = cited from earlier work

MGLL-mediated modification (MGLL): confirmed
SMILES: CCOC(=O)CCNc1cc(N2CCc3ccccc3CC2)nc(-c2ccccn2)n1 [GSK-J4]
sensitivity of MGLL S132A overexpressing cells versus parental or control-infected cells (G402 cells; MGLL S132A): equally sensitive
effect of MGLL WT overexpression (G402 cells; MGLL WT): significant resistance
rescue of proliferation effects by MGLL (KMRC3 cells): durably rescued
time at which effects on cell proliferation were observed (KMRC3 cells): ≤ 12 h
shift in GR50 conferred by MGLL overexpression [1]: 20 fold
time to induction of ATF4/metallothionein/ER stress [2]: ≤ 6 h
effect of knockout of MGLL on response (HEC1A and SUIT2 cells): sensitize
cellular permeability [3]: high cellular permeability
